System: L. major lysate proteins
Assay: Multitargeted bead mixture chemoproteomics, single concentration competition, proteome-wide
Type: binding
Settings: for fold change / fold change relative to vehicle control: vehicle control = 1; for fold change relative to vehicle control: competition with free ligand

CCCCCCOc1cccc(Cc2cnc(N)nc2N)c1 [compound 2]
fold change vs vehicle control (protein LMJF.22.0730 HY[…], CONSERVED): 1.07 | fold change (protein LMJF.22.1460 I/6 AUTOANTIGEN-LIKE PROTEIN): 1.1 | fold change vs vehicle control (protein LMJF.22.1540 ALANYL-TRNA SYNTHETASE, PUTATIVE): 1.04 | fold change vs vehicle control (protein LMJF.23.0370 […] OXIDASE SUBUNIT 10, PUTATIVE): 1.09 | fold change (protein LMJF.23.0830 NA/H ANTIPORTER-LIKE PROTEIN): 0.96 | fold change (protein LMJF.23.1020 HY[…], UNKNOWN FUNCTION): 1.14 | fold change (protein LMJF.23.1220 T-COMPLEX PROTEIN 1, GAMMA SUBUNIT, PUTATIVE): 1.08 | fold change vs vehicle control (protein LMJF.24.0140 ANKYRIN/TPR REPEAT PROTEIN): 1.09 | fold change (protein LMJF.24.0280 DYNEIN INTERMEDIATE-CHAIN-LIKE PROTEIN): 0.94 | fold change (protein LMJF.24.0770 MALIC ENZYME, PUTATIVE): 1.06 | fold change relative to vehicle control (protein LMJF.24.1510 IGE-DEPENDENT HISTAMINE-RELEASING FACTOR, PUTATIVE): 1.53 | fold change vs vehicle control (protein LMJF.24.1630, SUCCINATE DEHYDROGENASE FLAVOPROTEIN, PUTATIVE): 1 | fold change vs vehicle control (protein LMJF.24.1840 LYSOPHOSPHOLIPASE, PUTATIVE): 1.01 | fold change relative to vehicle control (protein LMJF.24.2060 TRANSKETOLASE): 0.99 | fold change (protein LMJF.24.2250 FATTY-ACID DESATURASE, PUTATIVE): 1.01 | fold change vs vehicle control (protein LMJF.25.0120 ELECTRON TRANSFER FLAVOPROTEIN, PUTATIVE): 1.07 | fold change vs vehicle control (protein LMJF.25.0260 DYNEIN LIGHT CHAIN 1, CYTOPLASMIC, PUTATIVE): 1.15 | fold change relative to vehicle control (protein LMJF.25.0910 CYCLOPHILIN A): 1.57 | fold change vs vehicle control (protein LMJF.25.1180, ATPASE BETA SUBUNIT, PUTATIVE): 1.17 | fold change (protein LMJF.25.1610 HY[…], CONSERVED): 1.09 | fold change (protein LMJF.25.1620 HY[…], CONSERVED): 1.15 | fold change vs vehicle control (protein LMJF.26.1240 HEAT SHOCK PROTEIN 70-RELATED PROTEIN): 1.01 | fold change vs vehicle control (protein LMJF.26.1710 […] OXIDASE SUBUNIT V, PUTATIVE): 1.08 | fold change vs vehicle control (protein LMJF.26.1960 HY[…], CONSERVED): 1.05 | fold change vs vehicle control (protein LMJF.26.2000 HYPOTHETICAL PROTEIN, CONSERVED): 1.23 | fold change vs vehicle control (protein LMJF.27.0420 RIBOKINASE, PUTATIVE): 1.18 | fold change vs vehicle control (protein LMJF.27.1060 CYSTEINE DESULFURASE, PUTATIVE): 0.93 | fold change (protein LMJF.27.1310 ARGINYL-TRNA SYNTHETASE, PUTATIVE): 0.98 | fold change vs vehicle control (protein LMJF.27.2400 HEAT SHOCK PROTEIN DNAJ, PUTATIVE): 0.96 | fold change vs vehicle control (protein LMJF.28.0110 […] 3 SUBUNIT, PUTATIVE): 1.07 | fold change vs vehicle control (protein LMJF.28.0930 HY[…], CONSERVED): 1.12 | fold change vs vehicle control (protein LMJF.28.0950 HY[…], CONSERVED): 1.03 | fold change vs vehicle control (protein LMJF.28.1950 X-PRO, DIPEPTIDYL-PEPTIDASE,SERINE PEPTIDASE, CLAN SC, FAMILY S15, PUTATIVE): 1.13 | fold change relative to vehicle control (protein LMJF.28.2770 HEAT-SHOCK PROTEIN HSP70, PUTATIVE): 1.25 | fold change (protein LMJF.29.0060 TRYPTOPHANYL-TRNA SYNTHETASE, PUTATIVE): 1.06 | fold change (protein LMJF.29.0820 CYSTEINE PEPTIDASE C (CPC)): 0.82 | fold change relative to vehicle control (protein LMJF.29.0850 HIGH MOBILITY GROUP PROTEIN HOMOLOG TDP-1, PUTATIVE): 1.3 | fold change vs vehicle control (protein LMJF.29.1160 TRYPAREDOXIN): 1.04 | fold change (protein LMJF.29.1760 PARAFLAGELLAR ROD PROTEIN 1D, PUTATIVE): 0.97 | fold change vs vehicle control (protein LMJF.29.1780 DIPHTHAMIDE SYNTHESIS PROTEIN, PUTATIVE): 0.98 | fold change vs vehicle control (protein LMJF.29.2240 AMINOPEPTIDASE, PUTATIVE): 1.11 | fold change (protein LMJF.29.2310 ENOYL-COA HYDRATASE/ISOMERASE-LIKE PROTEIN): 1.08 | fold change (protein LMJF.29.2860 40S RIBOSOMAL PROTEIN S19-LIKE PROTEIN): 1.19 | fold change vs vehicle control (protein LMJF.30.0850 SURFACE PROTEIN AMASTIN, PUTATIVE): 1.16 | fold change (protein LMJF.30.1250 PYRIDOXAL KINASE, PUTATIVE): 1.01 | fold change vs vehicle control (protein LMJF.30.3190 3-HYDROXY-3-METHYLGLUTARYL-COA REDUCTASE): 1.04 | fold change vs vehicle control (protein LMJF.30.3520 S-ADENOSYL[…]): 1.05 | fold change vs vehicle control (protein LMJF.31.0440 CYTOSKELETON-[…] CAP5 5, PUTATIVE): 1 | fold change (protein LMJF.31.1130 N-ACYL-L-AMINO ACID AMIDOHYDROLASE, PUTATIVE): 0.8 | fold change vs vehicle control (protein LMJF.31.1640 THIOLASE PROTEIN-LIKE PROTEIN): 1.14 | fold change (protein LMJF.31.1800 AMINO ACID PERMEASE): 1.08 | fold change (protein LMJF.31.2250 3,2-TRANS-ENOYL-COA ISOMERASE, MIT[…], PUTATIVE): 0.92 | fold change vs vehicle control (protein LMJF.31.2790 ADP-RI[…], PUTATIVE): 1.1 | fold change (protein LMJF.31.3130 […]-COA CARBOXYLASE BIOTINYLATED […]-LIKE PROTEIN): 1.03 | fold change (protein LMJF.32.0010 HYPOTHETICAL PROTEIN, CONSERVED): 0.82 | fold change vs vehicle control (protein LMJF.32.0400 ATP-DEPENDENT RNA HELICASE, PUTATIVE): 1.03 | fold change vs vehicle control (protein LMJF.32.0520 PROFILIN, PUTATIVE): 1 | fold change (protein LMJF.32.1000 […]-COMPLEX PROTEIN, PUTATIVE): 1.02 | fold change vs vehicle control (protein LMJF.32.3010 HYPOTHETICAL PROTEIN, CONSERVED,LEUCINE-RICH REPEAT PROTEIN, PUTATIVE): 0.99 | fold change vs vehicle control (protein LMJF.32.3870 MYOSIN XXI): 0.91 | fold change vs vehicle control (protein LMJF.33.0890, HY[…], CONSERVED): 1.05 | fold change vs vehicle control (protein LMJF.33.1070 HY[…], UNKNOWN FUNCTION): 1.03 | fold change (protein LMJF.33.1330 CYSTEINE CONJUGATE BETA-LYASE, AMINOTRANSFERASE- LIKE PROTEIN): 1.33 | fold change (protein LMJF.33.1610 PEPTIDASE M20/M25/M40, PUTATIVE): 1 | fold change relative to vehicle control (protein LMJF.33.1630 CYCLOPHILIN 4, PUTATIVE): 1.35 | fold change vs vehicle control (protein LMJF.33.2300 UDP-GLC 4'-EPIMERASE, PUTATIVE): 1.15 | fold change vs vehicle control (protein LMJF.33.2390 HEAT SHOCK PROTEIN, PUTATIVE): 1.12 | fold change (protein LMJF.33.2410 HY[…], CONSERVED): 1.02 | fold change (protein LMJF.33.3150 40S RIBOSOMAL PROTEIN S13, PUTATIVE): 1.22 | fold change (protein LMJF.34.3500 RUVB-LIKE 1 DNA HELICASE, PUTATIVE): 1.2 | fold change (protein LMJF.34.3670 VACUOLAR ATP SYNTHASE CATALYTIC SUBUNIT A, PUTATIVE): 1.09 | fold change (protein LMJF.34.3740 SERINE PALMITOYLTRANSFERASE-LIKE PROTEIN): 0.95 | fold change (protein LMJF.34.4120 HYPOTHETICAL PROTEIN, CONSERVED): 0.91 | fold change vs vehicle control (protein LMJF.34.4370 20S […] 7 SUBUNIT, (PUTATIVE)): 1.06 | fold change (protein LMJF.35.0370 ATP-DEPENDENT DEAD-BOX RNA HELICASE, PUTATIVE): 1.03 | fold change vs vehicle control (protein LMJF.35.1380, MIT[…], BETA SUBUNIT, PUTATIVE): 1.09 | fold change vs vehicle control (protein LMJF.35.1410 THREONYL-TRNA SYNTHETASE, PUTATIVE): 0.97 | fold change vs vehicle control (protein LMJF.35.1720 CYCLOPHILIN 14, PUTATIVE): 1.13 | fold change (protein LMJF.35.2500 HY[…], CONSERVED): 1.03 | fold change (protein LMJF.35.2730 ACYL-COA DEHYDROGENASE, PUTATIVE): 1.02 | fold change relative to vehicle control (protein LMJF.35.3010 […],TRYPANOTHIONE-DEPENDENT […]): 1.16 | fold change vs vehicle control (protein LMJF.35.3100 ATP-DEPENDENT RNA HELICASE, PUTATIVE): 1.09 | fold change vs vehicle control (protein LMJF.35.3340 6-phosphogluconate dehydrogenase): 1.05 | fold change (protein LMJF.35.3700 GIM5A PROTEIN, PUTATIVE,[…] PROTEIN): 1.04 | fold change vs vehicle control (protein LMJF.35.3840 PROTEASOME BETA 2 SUBUNIT, PUTATIVE): 0.82 | fold change vs vehicle control (protein LMJF.35.3860 T-COMPLEX PROTEIN 1, ETA SUBUNIT, PUTATIVE): 1.06 | fold change (protein LMJF.35.4550 HYPOTHETICAL PROTEIN, CONSERVED): 0.88 | fold change (protein LMJF.35.4770 CYCLOPHILIN 40): 0.93 | fold change (protein LMJF.35.4850 PROTEASOME ALPHA 1 SUBUNIT, PUTATIVE): 1.1 | fold change (protein LMJF.35.4860 HYPOTHETICAL PROTEIN, CONSERVED): 0.97 | fold change relative to vehicle control (protein LMJF.35.5330 ISOPENTENYL-D[…]-ISOMERASE, PUTATIVE,ISOMERASE, PUTATIVE): 1.17 | fold change vs vehicle control (protein LMJF.36.0180 ELONGATION FACTOR 2): 1.2 | fold change vs vehicle control (protein LMJF.36.0620 HYPOTHETICAL PROTEIN, CONSERVED): 1.47 | fold change vs vehicle control (protein LMJF.36.0990 40S RIBOSOMAL PROTEIN S10, PUTATIVE): 1.17 | fold change vs vehicle control (protein LMJF.36.2020 CHAPERONIN HSP60, MIT[…]): 1.01 | fold change vs vehicle control (protein LMJF.36.3460 HYPOTHETICAL PROTEIN, CONSERVED): 0.88 | fold change (protein LMJF.36.3760 60S RIBOSOMAL PROTEIN L10A, PUTATIVE): 1.2 | fold change vs vehicle control (protein LMJF.36.3840 GLYCYL TRNA SYNTHETASE, PUTATIVE): 1.06 | fold change vs vehicle control (protein LMJF.36.4170 OXIDOREDUCTASE, PUTATIVE): 1.05 | fold change vs vehicle control (protein LMJF.36.5010 40S RIBOSOMAL PROTEIN SA, PUTATIVE): 1.14 | fold change (protein LMJF.36.5390 PHOSPHORIBOSYLPYROPHOSPHATE SYNTHETASE, PUTATIVE): 0.96 | fold change vs vehicle control (protein LMJF.36.5620 ISOLEUCYL-TRNA SYNTHETASE, PUTATIVE): 1.15 | fold change vs vehicle control (protein LMJF.36.6430 PROTEIN TRANSPORT PROTEIN SEC23-LIKE PROTEIN): 1.05 | fold change (protein LMJF.36.6760 HYPOTHETICAL PROTEIN, CONSERVED): 1.1 | fold change vs vehicle control (protein LMJF.36.6910 T-COMPLEX PROTEIN 1, THETA SUBUNIT, PUTATIVE): 1.05 | fold change vs vehicle control (protein LMJF.36.6940 disulfide isomerase PDI): 1.3 | fold change vs vehicle control (protein LMJF.[…] […] EXOPOLYPHOSPHATASE, PUTATIVE): 0.78

Source: publication PMC6199744, “Development of Chemical Proteomics for the Folateome and Analysis of the Kinetoplastid Folateome” (ACS Infectious Diseases, 2018)
